Results on 30 molecules are retold here after patent US8546588B2, “Substituted hydroxamic acids and uses thereof” (Millennium Pharmaceuticals, Inc., priority 2010, dated 2013).

This assay concerns the target T1, purified human HDAC6 (Homo sapiens, UniProt Q9UBN7).
T1 construct: purchased BPS Bioscience 5006
T1 sequence (Q9UBN7 1-1215): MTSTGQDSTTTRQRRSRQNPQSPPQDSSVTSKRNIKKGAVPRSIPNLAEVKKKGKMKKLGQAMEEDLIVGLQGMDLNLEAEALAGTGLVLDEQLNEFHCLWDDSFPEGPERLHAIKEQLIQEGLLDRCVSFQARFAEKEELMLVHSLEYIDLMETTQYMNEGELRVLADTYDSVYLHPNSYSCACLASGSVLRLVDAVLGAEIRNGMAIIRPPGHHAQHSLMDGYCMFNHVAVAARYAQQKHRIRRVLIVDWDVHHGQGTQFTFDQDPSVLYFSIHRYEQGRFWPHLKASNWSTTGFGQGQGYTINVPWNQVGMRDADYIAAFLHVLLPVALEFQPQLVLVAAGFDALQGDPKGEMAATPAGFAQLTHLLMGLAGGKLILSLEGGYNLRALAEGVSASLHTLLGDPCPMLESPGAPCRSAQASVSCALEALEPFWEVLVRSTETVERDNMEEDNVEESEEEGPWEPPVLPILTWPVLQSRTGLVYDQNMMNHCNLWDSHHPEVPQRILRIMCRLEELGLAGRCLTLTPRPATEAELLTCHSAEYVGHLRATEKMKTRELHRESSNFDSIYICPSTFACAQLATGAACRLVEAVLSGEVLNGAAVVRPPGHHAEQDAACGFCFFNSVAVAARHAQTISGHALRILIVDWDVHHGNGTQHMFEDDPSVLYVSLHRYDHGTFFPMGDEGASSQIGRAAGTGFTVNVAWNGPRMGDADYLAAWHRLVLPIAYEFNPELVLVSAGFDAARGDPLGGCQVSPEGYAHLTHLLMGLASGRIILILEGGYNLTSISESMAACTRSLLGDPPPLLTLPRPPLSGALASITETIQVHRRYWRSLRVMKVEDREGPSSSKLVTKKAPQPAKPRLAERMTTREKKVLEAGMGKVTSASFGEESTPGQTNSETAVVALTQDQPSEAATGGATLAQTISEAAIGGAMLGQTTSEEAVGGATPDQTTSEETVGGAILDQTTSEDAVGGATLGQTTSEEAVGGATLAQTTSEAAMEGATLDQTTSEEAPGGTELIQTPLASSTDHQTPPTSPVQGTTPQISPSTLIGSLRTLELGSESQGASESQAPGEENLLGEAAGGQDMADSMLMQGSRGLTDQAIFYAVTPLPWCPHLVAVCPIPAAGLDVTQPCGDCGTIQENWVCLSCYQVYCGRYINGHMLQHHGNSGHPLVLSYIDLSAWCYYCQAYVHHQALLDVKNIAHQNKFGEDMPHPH
The assay is described as follows: HDAC6 Enzyme Assay. The class given is biochemical. To be noted: substrate Ac-Arg-Gly-Lys(Ac)-AMC peptide, 1 hour at 30° C. The procedure:
To measure the inhibition of HDAC6 activity, purified human HDAC6 (BPS Bioscience; Cat. No. 5006) is incubated with substrate Ac-Arg-Gly-Lys(Ac)-AMC peptide (Bachem Biosciences; Cat. No. I-1925) for 1 hour at 30° C. in the presence of test compounds or vehicle DMSO control. The reaction is stopped with the HDAC inhibitor trichostatin A (Sigma; Cat. No. T8552) and the amount of Arg-Gly-Lys-AMC generated is quantitated by digestion with trypsin (Sigma; Cat. No. T1426) and subsequent measurement of the amount of AMC released using a fluorescent plate reader (Pherastar; BMG Technologies) set at Ex 340 nm and Em 460 nm. Concentration response curves are generated by calculating the fluorescence increase in test compound-treated samples relative to DMSO-treated controls, and enzyme inhibition (IC50) values are determined from those curves.
`CC(NC(=O)NC1CCCC1)c1ccc(C(=O)NO)s1` (stereo not drawn) [Compound I-1, 5-(1-(3-cyclopentylureido)ethyl)-N-hydroxythiophene-2-carboxamide]: the IC50 is below 100 nM.
In turn, `CC(NC(=O)Nc1ccc(F)cc1)c1ccc(C(=O)NO)s1` (stereo not drawn) [Compound I-2, 5-[1-({[(4-fluorophenyl)amino]carbonyl}amino)ethyl]-N-hydroxythiophene-2-carboxamide] registered an IC50 below 100 nM.
Turning to `CC(NC(=O)Nc1cccc(C(F)(F)F)c1)c1ccc(C(=O)NO)s1` (stereo not drawn) [Compound I-3, N-hydroxy-5-{1-[({[3-(trifluoromethyl)phenyl]amino}carbonyl)amino]ethyl}thiophene-2-carboxamide], the IC50 is below 100 nM.
`CC(NC(=O)Nc1cc(Cl)cc(Cl)c1)c1ccc(C(=O)NO)s1` (stereo not drawn) [Compound I-4, 5-[1-({[(3,5-dichlorophenyl)amino]carbonyl}amino)ethyl]-N-hydroxythiophene-2-carboxamide]: the IC50 is 100 to 500 nM.
Consider `C[C@@H](NC(=O)c1cc2ccccc2n1C)c1ccc(C(=O)NO)s1` [Compound I-5, N-((1R)-1-{5-[(hydroxyamino)carbonyl]-2-thienyl}ethyl)-1-methyl-1H-indole-2-carboxamide], for which the IC50 was below 100 nM.
`C[C@@H](NC(=O)C(C)(C)C)c1ccc(C(=O)NO)s1` [Compound I-6, 5-{(1R)-1-[(2,2-dimethylpropanoyl)amino]ethyl}-N-hydroxythiophene-2-carboxamide]: the IC50 was above 500 nM.
Consider `CC(NC(=O)Nc1cc(C(F)(F)F)ccc1F)c1ccc(C(=O)NO)s1` (stereo not drawn) [Compound I-7, 5-{1-[({[2-fluoro-5-(trifluoromethyl)phenyl]amino}carbonyl)amino]ethyl}-N-hydroxythiophene-2-carboxamide], for which the IC50 is below 100 nM.
The same measure for `C[C@@H](NC(=O)NC(C)(C)C)c1ccc(C(=O)NO)s1` [Compound I-8, 5-((1R)-1-{[(tert-butylamino)carbonyl]amino}ethyl)-N-hydroxythiophene-2-carboxamide]: 100 to 500 nM.
For `COc1ccc(C(=O)N[C@H](C)c2ccc(C(=O)NO)s2)cc1` [Compound I-9, N-hydroxy-5-{(1R)-1-[(4-methoxybenzoyl)amino]ethyl}thiophene-2-carboxamide], the IC50 was below 100 nM.
In turn, `CC(NC(=O)Nc1ccc(Cl)c(C(F)(F)F)c1)c1ccc(C(=O)NO)s1` (stereo not drawn) [Compound I-10, 5-{1-[({[4-chloro-3-(trifluoromethyl)phenyl]amino}carbonyl)amino]ethyl}-N-hydroxythiophene-2-carboxamide] showed an IC50 below 100 nM.
For the molecule `C[C@@H](NC(=O)C12CC3CC(CC(C3)C1)C2)c1ccc(C(=O)NO)s1` [Compound I-11, 5-{(1R)-1-[(1-adamantylcarbonyl)amino]ethyl}-N-hydroxythiophene-2-carboxamide], the IC50 is above 500 nM.
In the case of `CC(NC(=O)Nc1ccccc1)c1ccc(C(=O)NO)s1` (stereo not drawn) [Compound I-12, 5-{1-[(anilinocarbonyl)amino]ethyl}-N-hydroxythiophene-2-carboxamide], the IC50 is below 100 nM.
As for `Cc1ccc(NC(=O)NC(C)c2ccc(C(=O)NO)s2)c(C)c1` (stereo not drawn) [Compound I-13, 5-[1-({[(2,4-dimethylphenyl)amino]carbonyl}amino)ethyl]-N-hydroxythiophene-2-carboxamide], the figure is below 100 nM; as for `CC(NC(=O)Nc1ccc(Oc2ccccc2)cc1)c1ccc(C(=O)NO)s1` (stereo not drawn) [Compound I-14, N-hydroxy-5-[1-({[(4-phenoxyphenyl)amino]carbonyl}amino)ethyl]thiophene-2-carboxamide], below 100 nM; as for `Cc1c(C(=O)N[C@H](C)c2ccc(C(=O)NO)s2)oc2ccccc12` [Compound I-15, N-((1R)-1-{5-[(hydroxyamino)carbonyl]-2-thienyl}ethyl)-3-methyl-1-benzofuran-2-carboxamide], below 100 nM.
Molecule `C[C@@H](NC(=O)c1cc2ccccc2s1)c1ccc(C(=O)NO)s1` [Compound I-16, N-((1R)-1-{5-[(hydroxyamino)carbonyl]-2-thienyl}ethyl)-1-benzothiophene-2-carboxamide] gave an IC50 below 100 nM.
As for `C[C@@H](NC(=O)c1cc(Cl)c(Cl)n1C)c1ccc(C(=O)NO)s1` [Compound I-17, 4,5-dichloro-N-((1R)-1-{5-[(hydroxyamino)carbonyl]-2-thienyl}ethyl)-1-methyl-1H-pyrrole-2-carboxamide], the figure is below 100 nM; as for `CC(NC(=O)NCc1ccccc1)c1ccc(C(=O)NO)s1` (stereo not drawn) [Compound I-18, 5-(1-{[(benzylamino)carbonyl]amino}ethyl)-N-hydroxythiophene-2-carboxamide], below 100 nM; as for `COc1ccc(C)cc1NC(=O)NC(C)c1ccc(C(=O)NO)s1` (stereo not drawn) [Compound I-19, N-hydroxy-5-[1-({[(2-methoxy-5-methylphenyl)amino]carbonyl}amino)ethyl]thiophene-2-carboxamide], below 100 nM.
As for `CC(NC(=O)Nc1c(F)cccc1F)c1ccc(C(=O)NO)s1` (stereo not drawn) [Compound I-20, 5-[1-({[(2,6-difluorophenyl)amino]carbonyl}amino)ethyl]-N-hydroxythiophene-2-carboxamide], the IC50 fell in the range of 100 to 500 nM.
Consider `C[C@H](NC(=O)c1cc2ccccc2s1)c1ccc(C(=O)NO)s1` [Compound I-21, N-((1S)-1-{5-[(hydroxyamino)carbonyl]-2-thienyl}ethyl)-1-benzothiophene-2-carboxamide], for which the IC50 was below 100 nM.
With `CC(NC(=O)Nc1ccc(OC(F)(F)F)cc1)c1ccc(C(=O)NO)s1` (stereo not drawn) [Compound I-22, N-hydroxy-5-{1-[({[4-(trifluoromethoxy)phenyl]amino}carbonyl)amino]ethyl}thiophene-2-carboxamide], the IC50 was below 100 nM.
Turning to `C[C@@H](NS(=O)(=O)c1ccc(C(F)(F)F)cc1)c1ccc(C(=O)NO)s1` [Compound I-23, N-hydroxy-5-[(1R)-1-({[4-(trifluoromethyl)phenyl]sulfonyl}amino)ethyl]thiophene-2-carboxamide], the IC50 lay within 100 to 500 nM.
Consider `CC(NC(=O)NC1CCCCC1)c1ccc(C(=O)NO)s1` (stereo not drawn) [Compound I-24, 5-(1-{[(cyclohexylamino)carbonyl]amino}ethyl)-N-hydroxythiophene-2-carboxamide], for which the IC50 lay within 100 to 500 nM.
Take `CC(NC(=O)Nc1ccccc1-c1ccccc1)c1ccc(C(=O)NO)s1` (stereo not drawn) [Compound I-27, 5-(1-{[(biphenyl-2-ylamino)carbonyl]amino}ethyl)-N-hydroxythiophene-2-carboxamide]: the IC50 is 100 to 500 nM.
As to `CC(NC(=O)NC(C)c1ccc(C(=O)NO)s1)c1ccccc1` (stereo not drawn) [Compound I-28, N-hydroxy-5-[1-({[(1-phenylethyl)amino]carbonyl}amino)ethyl]thiophene-2-carboxamide], the IC50 was 100 to 500 nM.
As for `C[C@@H](NC(=O)c1cccn1C)c1ccc(C(=O)NO)s1` [Compound I-29, N-((1R)-1-{5-[(hydroxyamino)carbonyl]-2-thienyl}ethyl)-1-methyl-1H-pyrrole-2-carboxamide], the figure is below 100 nM; as for `Cc1cccc(NC(=O)NC(C)c2ccc(C(=O)NO)s2)c1` (stereo not drawn) [Compound I-30, N-hydroxy-5-[1-({[(3-methylphenyl)amino]carbonyl}amino)ethyl]thiophene-2-carboxamide], below 100 nM.
`Cc1c(C(=O)N[C@H](C)c2ccc(C(=O)NO)s2)sc2ccccc12` [Compound I-31, N-((1R)-1-{5-[(hydroxyamino)carbonyl]-2-thienyl}ethyl)-3-methyl-1-benzothiophene-2-carboxamide] had an IC50 below 100 nM.
As to `Cc1cccc(C)c1NC(=O)NC(C)c1ccc(C(=O)NO)s1` (stereo not drawn) [Compound I-32, 5-[1-({[(2,6-dimethylphenyl)amino]carbonyl}amino)ethyl]-N-hydroxythiophene-2-carboxamide], the IC50 is 100 to 500 nM.

The term IC50 denotes the concentration that inhibits the measured activity by half. A high value points to a need for much substance.
